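The concentration for 50% growth inhibition is given as GI50. TGI: concentration producing complete growth inhibition.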
Tests used:
Experiment in all cases: NCI tumour cell line growth inhibition, 384-well format
A498 renal = test system: A498 renal
A549 NSCLC = test system: A549 NSCLC
ACHN renal = test system: ACHN renal
BT-549 breast = test system: BT-549 breast
CAKI-1 renal = test system: CAKI-1 renal
COLO 205 colon = test system: COLO 205 colon
DU-145 prostate = test system: DU-145 prostate
EKVX NSCLC = test system: EKVX NSCLC
HCC-2998 colon = test system: HCC-2998 colon
HCT-116 colon = test system: HCT-116 colon
HCT-15 colon = test system: HCT-15 colon
HL-60(TB) leukemia = test system: HL-60(TB) leukemia
HOP-62 NSCLC = test system: HOP-62 NSCLC
HOP-92 NSCLC = test system: HOP-92 NSCLC
HS 578T breast = test system: HS 578T breast
HT29 colon = test system: HT29 colon
IGROV1 ovarian = test system: IGROV1 ovarian
KM12 colon = test system: KM12 colon
LOX IMVI melanoma = test system: LOX IMVI melanoma
M14 melanoma = test system: M14 melanoma
MALME-3M melanoma = test system: MALME-3M melanoma
MCF7 breast = test system: MCF7 breast
MDA-MB-231 breast = test system: MDA-MB-231 breast
MDA-MB-435 melanoma = test system: MDA-MB-435 melanoma
MDA-MB-468 breast = test system: MDA-MB-468 breast
MOLT-4 leukemia = test system: MOLT-4 leukemia
NCI-H226 lung = test system: NCI-H226 lung
NCI-H23 lung = test system: NCI-H23 lung
NCI-H322M lung = test system: NCI-H322M lung
NCI-H460 NSCLC = test system: NCI-H460 NSCLC
NCI-H522 lung = test system: NCI-H522 lung
NCI/ADR-RES ovarian = test system: NCI/ADR-RES ovarian
OVCAR-3 ovarian = test system: OVCAR-3 ovarian
OVCAR-4 ovarian = test system: OVCAR-4 ovarian
OVCAR-5 ovarian = test system: OVCAR-5 ovarian
OVCAR-8 ovarian = test system: OVCAR-8 ovarian
PC-3 prostate = test system: PC-3 prostate
RPMI-8226 leukemia = test system: RPMI-8226 leukemia
RXF 393 renal = test system: RXF 393 renal
SF-268 CNS = test system: SF-268 CNS
SF-295 CNS = test system: SF-295 CNS
SF-539 CNS = test system: SF-539 CNS
SK-MEL-28 melanoma = test system: SK-MEL-28 melanoma
SK-MEL-5 melanoma = test system: SK-MEL-5 melanoma
SK-OV-3 ovarian = test system: SK-OV-3 ovarian
SN12C renal = test system: SN12C renal
SNB-19 CNS = test system: SNB-19 CNS
SNB-75 CNS = test system: SNB-75 CNS
SR leukemia = test system: SR leukemia
T-47D breast = test system: T-47D breast
TK-10 renal = test system: TK-10 renal
U251 glioblastoma = test system: U251 glioblastoma
UACC-257 melanoma = test system: UACC-257 melanoma
UACC-62 melanoma = test system: UACC-62 melanoma

SMILES: Cn1ncc(Cl)c1-c1cc(C(=O)N[C@H](CN)Cc2cccc(F)c2)sc1Cl
- GI50 (A498 renal): 126 nM
- TGI (A498 renal): 1240 nM
- GI50 (A549 NSCLC): 4010 nM
- TGI (A549 NSCLC): 16400 nM
- GI50 (ACHN renal): 3460 nM
- TGI (ACHN renal): 15500 nM
- GI50 (BT-549 breast): 819 nM
- TGI (BT-549 breast): 2450 nM
- GI50 (CAKI-1 renal): 2760 nM
- TGI (CAKI-1 renal): 14000 nM
- GI50 (COLO 205 colon): 1120 nM
- TGI (COLO 205 colon): 2360 nM
- GI50 (DU-145 prostate): 3380 nM
- TGI (DU-145 prostate): 14600 nM
- GI50 (EKVX NSCLC): 2940 nM
- TGI (EKVX NSCLC): 12500 nM
- GI50 (HCC-2998 colon): 558 nM
- TGI (HCC-2998 colon): 2010 nM
- GI50 (HCT-116 colon): 2280 nM
- TGI (HCT-116 colon): 7530 nM
- GI50 (HCT-15 colon): 1760 nM
- TGI (HCT-15 colon): 13100 nM
- GI50 (HL-60(TB) leukemia): 1320 nM
- TGI (HL-60(TB) leukemia): 2700 nM
- GI50 (HOP-62 NSCLC): 2310 nM
- TGI (HOP-62 NSCLC): 6220 nM
- GI50 (HOP-92 NSCLC): 2090 nM
- TGI (HOP-92 NSCLC): 8600 nM
- GI50 (HS 578T breast): 1010 nM
- TGI (HS 578T breast): 2560 nM
- GI50 (HT29 colon): 1150 nM
- TGI (HT29 colon): 2890 nM
- GI50 (IGROV1 ovarian): 43.6 nM
- TGI (IGROV1 ovarian): 534 nM
- GI50 (KM12 colon): 532 nM
- TGI (KM12 colon): 2210 nM
- GI50 (LOX IMVI melanoma): 1750 nM
- TGI (LOX IMVI melanoma): 3230 nM
- GI50 (M14 melanoma): 1710 nM
- TGI (M14 melanoma): 3150 nM
- GI50 (MALME-3M melanoma): 1300 nM
- TGI (MALME-3M melanoma): 2590 nM
- GI50 (MCF7 breast): 460 nM
- TGI (MCF7 breast): 2000 nM
- GI50 (MDA-MB-231 breast): 5950 nM
- TGI (MDA-MB-231 breast): 18800 nM
- GI50 (MDA-MB-435 melanoma): 2010 nM
- TGI (MDA-MB-435 melanoma): 5430 nM
- GI50 (MDA-MB-468 breast): 187 nM
- TGI (MDA-MB-468 breast): 1950 nM
- GI50 (MOLT-4 leukemia): 150 nM
- TGI (MOLT-4 leukemia): 1120 nM
- GI50 (NCI-H226 lung): 2930 nM
- TGI (NCI-H226 lung): 9220 nM
- GI50 (NCI-H23 lung): 3200 nM
- TGI (NCI-H23 lung): 11700 nM
- GI50 (NCI-H322M lung): 2150 nM
- TGI (NCI-H322M lung): 10900 nM
- GI50 (NCI-H460 NSCLC): 427 nM
- TGI (NCI-H460 NSCLC): 2670 nM
- GI50 (NCI-H522 lung): 1900 nM
- TGI (NCI-H522 lung): 5360 nM
- GI50 (NCI/ADR-RES ovarian): 7070 nM
- TGI (NCI/ADR-RES ovarian): 19900 nM
- GI50 (OVCAR-3 ovarian): 2020 nM
- TGI (OVCAR-3 ovarian): 10500 nM
- GI50 (OVCAR-4 ovarian): 6000 nM
- TGI (OVCAR-4 ovarian): 18900 nM
- GI50 (OVCAR-5 ovarian): 1620 nM
- TGI (OVCAR-5 ovarian): 4290 nM
- GI50 (OVCAR-8 ovarian): 2110 nM
- TGI (OVCAR-8 ovarian): 5320 nM
- GI50 (PC-3 prostate): 300 nM
- TGI (PC-3 prostate): 2690 nM
- GI50 (RPMI-8226 leukemia): 1760 nM
- TGI (RPMI-8226 leukemia): 3180 nM
- GI50 (RXF 393 renal): 680 nM
- TGI (RXF 393 renal): 2560 nM
- GI50 (SF-268 CNS): 4500 nM
- TGI (SF-268 CNS): 15300 nM
- GI50 (SF-295 CNS): 1070 nM
- TGI (SF-295 CNS): 2330 nM
- GI50 (SF-539 CNS): 337 nM
- TGI (SF-539 CNS): 2140 nM
- GI50 (SK-MEL-28 melanoma): 1330 nM
- TGI (SK-MEL-28 melanoma): 2670 nM
- GI50 (SK-MEL-5 melanoma): 1390 nM
- TGI (SK-MEL-5 melanoma): 2700 nM
- GI50 (SK-OV-3 ovarian): 737 nM
- TGI (SK-OV-3 ovarian): 8040 nM
- GI50 (SN12C renal): 2670 nM
- TGI (SN12C renal): 14400 nM
- GI50 (SNB-19 CNS): 1740 nM
- TGI (SNB-19 CNS): 10200 nM
- GI50 (SNB-75 CNS): 449 nM
- TGI (SNB-75 CNS): 3660 nM
- GI50 (SR leukemia): 1350 nM
- TGI (SR leukemia): 2640 nM
- GI50 (T-47D breast): 274 nM
- TGI (T-47D breast): 2050 nM
- GI50 (TK-10 renal): 1180 nM
- TGI (TK-10 renal): 5470 nM
- GI50 (U251 glioblastoma): 1110 nM
- TGI (U251 glioblastoma): 2430 nM
- GI50 (UACC-257 melanoma): 1460 nM
- TGI (UACC-257 melanoma): 2790 nM
- GI50 (UACC-62 melanoma): 1290 nM
- TGI (UACC-62 melanoma): 2970 nM

From PubChem BioAssay (NCI)
